Our source for the mortality values is patent publication US5556859A, “N-(4-pyrimidinyl)amide pesticides” (DowElanco, priority 1994, dated 1996).

In assay [1] the test system is tobacco budworm (Heliothis virescens). Nature of the assay: Activity against tobacco budworm (TBW). It counts as in vivo. To be noted: 144 h, read-out: percent mortality, TBW. Put shortly: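 Eighteen to twenty Heliothis virescens eggs were placed on half-strength artificial diet and sprayed one hour later with compound at 400 and 50 ppm, in aqueous Tween 20 with acetone/EtOH. Cups were held 6 days at room temperature. Ratings were based on live and dead larval counts and live larval size.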

Assay [2] deals with aster leafhopper (Macrosteles fascifrons). Kind of assay: whole plant or invertebrate. As to conditions: 24 h, read-out: percent mortality, ALH.
The subject of assay [3] is beet armyworm (Spodoptera exiqua). Nature of the assay: whole plant or invertebrate. To be noted: 144 h, read-out: percent mortality, BAW.
In assay [4] the test system is cotton aphid (Aphis gossypii). Kind of assay: whole plant or invertebrate. As to conditions: 72 h, read-out: percent mortality, CA.
Assay [5] has as its system peanut root knot nematode (Meloidogyne arenaria). Kind of assay: whole plant or invertebrate. As to conditions: in Arachis hypogaea, read-out: percent mortality, RKN.
The test system of assay [6] is Southern corn rootworm (Diabrotica undecimpuctata howardi Barber). Kind of assay: whole plant or invertebrate. As to conditions: in Zea mays, soil, read-out: percent mortality, SCRW.
Assay [7] relates to two spotted spider mite (Tetranychus urticae). Kind of assay: whole plant or invertebrate. To be noted: 72 h, read-out: percent mortality, TSSM.
In assay [8] the test system is German cockroach (Blattella germanicus). Kind of assay: whole plant or invertebrate. As to conditions: 240 h, read-out: percent mortality, GECR.

One may read the mortality as the share of the test organisms that died. Take `CCc1nccc(NC(=O)Cc2ccc(Oc3ccc(C#N)cc3)cc2)n1` [Compound 12, 4-(4-cyanophenoxy)phenyl-N-(2-ethyl-4-pyrimidinyl)acetamide]: the mortality at 400 ppm in assay [1], in assay [2], in assay [3], in assay [4], in assay [5] and in assay [7] was 100% each time. The mortality at 400 ppm in assay [8] is 100%. In addition, the mortality at 24 µg/g in assay [6] worked out at 100%.
Turning to `CCc1nccc(NC(=O)Cc2ccc(Oc3ccc(C#N)cn3)cc2)n1` [Compound 13, 4-(5-cyano-2-pyridinyloxy)phenyl-N-(2-ethyl-4-pyrimidinyl)acetamide], the mortality at 400 ppm amounted to 100% in assay [1]; 0% in assay [2]; 100% in assay [3]; 100% in assay [4]; 100% in assay [5]; 100% in assay [7]. The mortality at 400 ppm in assay [8] is 60%. Besides, the mortality at 24 µg/g in assay [6] is 0%.
As to `CCc1nccc(NC(=O)Cc2ccc(Oc3ncc(Br)cn3)cc2)n1` [Compound 14, 4-(5-bromo-2-pyrimidinyloxy)phenyl-N-(2-ethyl-4-pyrimidinyl)acetamide], the mortality at 400 ppm in assay [1] is 80%; in assay [2], 100%; in assay [3], 100%; in assay [4], 100%; in assay [5], 0%; in assay [7], 0%. Besides, the mortality at 400 ppm in assay [8] was found to be 0%. Besides, the mortality at 24 µg/g in assay [6] came to 0%.
On to `CCc1nccc(NC(=O)Cc2ccc(Oc3ccc([N+](=O)[O-])cc3)cc2)n1` [Compound 53, 4-(4-nitrophenoxy)phenyl-N-(2-ethyl-4-pyrimidinyl)acetamide], for which the mortality at 400 ppm worked out at 100% in assay [1]; 90% in assay [2]; 100% in assay [3]; 100% in assay [4]; 100% in assay [5]; 100% in assay [7]. The mortality at 400 ppm in assay [8] is 80%. In addition, the mortality at 24 µg/g in assay [6] was determined as 100%.
With `O=C(Cc1ccc(Oc2ccc(F)cc2)cc1)Nc1ccnc(Cl)n1` [Compound 54, 4-(4-fluorophenoxy)phenyl-N-(2-chloro-4-pyrimidinyl)acetamide], the mortality at 400 ppm in assay [1] is 60%; in assay [2] it was 0%; in assay [3] it was 100%; in assay [4] it was 0%; in assay [5], 0%; in assay [7] it was 0%. The mortality at 400 ppm in assay [8] came to 0%. In assay [6], the mortality at 24 µg/g is 0%.
In the case of `CCc1nccc(NC(=O)Cc2ccc(OC(F)(F)C(F)F)cc2)n1` [Compound 55, 4-(1,1,2,2-tetrafluoroethoxy)phenyl-N-(2-ethyl-4-pyrimidinyl)acetamide], the mortality at 400 ppm in assay [1] worked out at 80%; in assay [2], 100%; in assay [3], 100%; in assay [4], 100%; in assay [5], 100%; in assay [7] it was 100%. Besides, in assay [8], the mortality at 400 ppm worked out at 100%. Also, the mortality at 24 µg/g in assay [6] came out at 100%.
For `CC(C)(C)c1nccc(NC(=O)Cc2ccc(Oc3ccc(Cl)cc3)cc2)n1` [Compound 59, 4-(4-chlorophenoxy)phenyl-N-(2-(1,1-dimethylethyl)-4-pyrimidinyl)acetamide], the mortality at 400 ppm in assay [1] was found to be 100%; in assay [2], 80%; in assay [3], 100%; in assay [4], 100%; in assay [5] it was 0%; in assay [7], 0%. The mortality at 400 ppm in assay [8] came to 100%. Also, in assay [6], the mortality at 24 µg/g was 100%.
